# In PubChem BioAssay (NCI):
#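 96-well plates; 48 h exposure; 5 concentrations. Endpoints by linear interpolation between flanking doses. Not reached: highest tested concentration assigned. Abbreviation: GI50, concentration required for 50% inhibition of growth. TGI denotes the concentration required for complete inhibition of growth.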
# Assays:
# Assay in all cases: inhibition of tumour cell growth, NCI panel, 48 h
# SK-MEL-28 melanoma = system: SK-MEL-28 melanoma
# M14 melanoma = system: M14 melanoma
# ACHN renal = system: ACHN renal
# SF-539 CNS = system: SF-539 CNS
# OVCAR-4 ovarian = system: OVCAR-4 ovarian
# SK-MEL-5 melanoma = system: SK-MEL-5 melanoma
# NCI-H226 lung = system: NCI-H226 lung
# HS 578T breast = system: HS 578T breast
# MDA-MB-231 breast = system: MDA-MB-231 breast
# PC-3 prostate = system: PC-3 prostate
Structure (SMILES),TGI (SK-MEL-28 melanoma) [µM],TGI (M14 melanoma) [µM],TGI (ACHN renal) [µM],TGI (SF-539 CNS) [µM],TGI (OVCAR-4 ovarian) [µM],TGI (SK-MEL-5 melanoma) [µM],TGI (NCI-H226 lung) [µM],TGI (HS 578T breast) [µM],TGI (MDA-MB-231 breast) [µM],TGI (PC-3 prostate) [µM],GI50 (SK-MEL-5 melanoma) [µM],GI50 (SK-MEL-28 melanoma) [µM],GI50 (M14 melanoma) [µM],GI50 (ACHN renal) [µM],GI50 (HS 578T breast) [µM],GI50 (SF-539 CNS) [µM],GI50 (OVCAR-4 ovarian) [µM],GI50 (MDA-MB-231 breast) [µM],GI50 (PC-3 prostate) [µM],GI50 (NCI-H226 lung) [µM]
Cc1cc2c(c(C(N)=O)c1C)-c1ccccc1C2=O,> 100,> 100,> 100,> 100,> 100,,,,,,,,,,,,,,,
CC(C(=O)c1ccc(Cl)cc1)/C(=N/NC(=O)NN)C(=O)Nc1cccc(C(F)(F)F)c1 (stereo unspecified),> 100,> 100,> 100,> 100,> 100,> 100,> 100,,,,,,,,,,,,,
Cc1ccccc1C1=[N+]([O-])c2ccc(Cl)cc2C1=O,35.9,29.9,25.5,31.6,,26.7,30.6,,,,,,,,,,,,,
COC(=O)/C([Se]c1c(C)cc(C)cc1C)=C(/[Se]c1c(C)cc(C)cc1C)C(=O)OC,,> 100,> 100,> 100,> 100,> 100,> 100,,,,,,,,,,,,,
CCC1CN2CCc3cc(OC)c(OC)cc3C2CC1CC1c2cc(OC)c(OC)cc2CCN1C(=O)C1CCCN1 (stereo unspecified),50.9,27.6,> 100,37.8,87.9,31.3,96.7,,,,,,,,,,,,,
CCC(C)(O)c1cnc(CC(C)C)c(=O)n1O (stereo unspecified),> 100,,> 100,,> 100,> 100,,> 100,> 100,> 100,,,,,,,,,,
COc1cc(/C=C2\[C@H]3c4c(c(OC)c(C)c(OC)c4OC)CC(C(=O)N2Cc2ccccc2)N3C)c(OC)c(C)c1OC,64.2,36,78.7,33.4,> 100,33,24,,,,,,,,,,,,,
CCOC(=O)NC(=O)c1cn(C2CCCCC2)c(=O)[nH]c1=O,> 100,> 100,> 100,> 100,> 100,,> 100,,,,,,,,,,,,,
CCCc1cc(=O)n2c(C(=O)Nc3ccc(Cl)cc3C)c(C(=O)Nc3ccc(F)cc3)sc2n1,46,23.7,13.4,22.7,6.25,> 150,,8.55,3.08,11,27.1,8.07,4.67,3.8,2.27,6.02,2.57,0.698,2.07,
CC(C)CCC[C@@H](C)C1CCC2[C@@H]3CC=C4C[C@@H](C(=O)NCCN(C)C)CC[C@]4(C)C3CC[C@@]21C (stereo partly specified),> 100,32.6,> 100,46,> 100,,51.4,,,,,,,,,,,,,
COc1c(C)n(CCO)ccc1=O,> 100,> 100,> 100,,> 100,> 100,> 100,,,,,,,,,,,,,
O=C1CCCN1c1ccccc1I(=O)=O,> 100,,> 100,> 100,> 100,> 100,> 100,> 100,> 100,,> 100,> 100,,> 100,> 100,> 100,> 100,> 100,,> 100
Nc1ccccc1C(=O)/C=C/c1c(O)ccc2ccccc12,> 100,> 100,> 100,> 100,> 100,> 100,> 100,,,,,,,,,,,,,
CC1CC(O)C(=O)C(O[C@@H]2C[C@@H]3CC[C@@H]4[C@H](CC[C@]5(C)C(C6=CC(=O)OC6)CC[C@]45O)[C@@]3(C=O)C[C@H]2O)O1 (stereo partly specified),0.329,0.178,0.0406,0.0586,,0.0174,0.228,0.214,,< 0.0424,,,,,,,,,,
Cc1[nH]c2ccccc2c1C1Cc2ccccc2N1C(=O)C#Cc1ccc([N+](=O)[O-])cc1 (stereo unspecified),> 100,> 100,> 100,> 100,> 100,,> 100,,,,,,,,,,,,,
Cn1c(=O)nc2n(-c3cc(C(F)(F)F)cc(C(F)(F)F)c3)c3ccccc3nc-2c1=O,> 100,> 100,> 100,> 100,> 100,54.4,> 100,,,,,,,,,,,,,
CC(=O)N1CCN(c2ccc(OCC3COC(Cn4ccnc4)(c4ccc(Cl)cc4Cl)O3)cc2)CC1 (stereo unspecified),> 100,52.1,> 100,,> 100,24.9,73.6,,,,,,,,,,,,,
N#CCCN1C/C(=C/c2ccc(Br)cc2)C(=O)/C(=C/c2ccc(Br)cc2)C1,3.51,4.15,3.37,2.99,> 100,2.93,,,11.4,7.54,1.58,1.77,1.99,1.76,,1.61,2.69,2.95,1.51,
COC(=O)C1C(O)C(C(=O)OC)C(C)N(C)C1C (stereo unspecified),> 100,> 100,> 100,> 100,> 100,> 100,> 100,,> 100,> 100,,,,,,,,,,
Cn1cc(-c2csc(-c3cn(CCCCN4CCCCC4)c4ccccc34)n2)c2cccnc21,3.12,,3.03,,4.04,,,4.16,,3.03,,1.7,,1.67,1.67,,1.96,,1.61,
COC(=O)C(=O)C(C(C)=O)C(=O)NCc1ccc(OC)c(OC)c1 (stereo unspecified),> 100,> 100,> 100,> 100,> 100,> 100,> 100,,,,,,,,,,,,,
CCOP(=O)(OCC)C(C(=O)OC)C(=O)C(=O)Nc1ccc(Cl)cc1Cl (stereo unspecified),> 100,> 100,> 100,> 100,> 100,> 100,> 100,,,,,,,,,,,,,

Structure (SMILES),TGI (SK-MEL-28 melanoma) [µM],TGI (M14 melanoma) [µM],TGI (ACHN renal) [µM],TGI (SF-539 CNS) [µM],TGI (OVCAR-4 ovarian) [µM],TGI (SK-MEL-5 melanoma) [µM],TGI (NCI-H226 lung) [µM],TGI (HS 578T breast) [µM],TGI (MDA-MB-231 breast) [µM],TGI (PC-3 prostate) [µM],GI50 (SK-MEL-5 melanoma) [µM],GI50 (SK-MEL-28 melanoma) [µM],GI50 (M14 melanoma) [µM],GI50 (ACHN renal) [µM],GI50 (HS 578T breast) [µM],GI50 (SF-539 CNS) [µM],GI50 (OVCAR-4 ovarian) [µM],GI50 (MDA-MB-231 breast) [µM],GI50 (PC-3 prostate) [µM],GI50 (NCI-H226 lung) [µM]
Cc1ccc(C)c(N2C/C(=N\NC(=O)CC#N)C(c3nc4ccccc4s3)C(=O)C2=O)c1 (stereo unspecified),> 100,> 100,> 100,,> 100,> 100,> 100,,,,,,,,,,,,,
O=[N+]([O-])c1cccc(C2=NOC(C3CCCCC3)C2)c1 (stereo unspecified),> 100,> 100,> 100,> 100,> 100,> 100,> 100,,,,,,,,,,,,,
Cc1cccc(C2=C/C(=C(\SS/C(C(=O)c3ccc(OCC(=O)O)c(Cl)c3Cl)=C3\C=C(c4cccc(C)c4)SS3)C(=O)c3ccc(OCC(=O)O)c(Cl)c3Cl)SS2)c1,87.4,51.3,37.7,39.9,> 70.2,47.8,35.6,,,,,,,,,,,,,
COc1cc(/C=C\c2cc(OC)c(OC)c(OC)c2)cc(N/C=C\C(=O)c2c[nH]c3ccccc23)c1OC,3.79,12.6,3.39,3.19,,12.6,27.7,12.9,4.11,18.6,3.14,1.86,2.87,1.75,2.21,1.7,,1.73,3.44,7.28
CCCC/C(=C\C1=C(C)C(=O)C(OC)=C(OC)C1=O)C(=O)O,> 100,> 100,> 100,> 100,> 100,> 100,,> 100,> 100,> 100,> 100,> 100,> 100,> 100,> 100,> 100,31.6,33.9,> 100,
Nc1nc(-c2ccc(Cl)c([N+](=O)[O-])c2)cs1,,> 100,> 100,> 100,> 100,> 100,,,,,,,,,,,,,,
CN(C(=O)c1ccc([N+](=O)[O-])cc1)c1ccccc1,> 100,> 100,> 100,> 100,> 100,,> 100,,,,,,,,,,,,,
CC(C)(C)c1ccc2c(c1)S(=O)(=O)Nc1ccc(Cl)cc1NS(=O)(=O)c1cc(C(C)(C)C)ccc1OCCOCCOCCO2,> 100,> 100,> 100,> 100,28,> 100,> 100,,,,,,,,,,,,,
COc1cc2c(/C=N\N=C(N)N)c[nH]c2cc1C,,28.3,> 100,,,30.9,71.8,40,34.1,27.4,17.2,,15.1,24.3,18.5,,,14.7,14.3,17.1
COc1cc2c(cc1O)CCN[C@]21CS[C@@H]2c3c(OC(C)=O)c(C)c4c(c3[C@H](COC1=O)N1[C@@H]2[C@H]2c3c(cc(C)c(OC)c3O)C[C@@H]([C@@H]1O)N2C)OCO4,,0.00383,,,0.0718,0.00433,0.00582,,0.0199,0.119,,,,,,,,,0.00279,0.00313
CCOCN1COCN(C)C1=O,> 100,> 100,> 100,> 100,> 100,> 100,> 100,,,,,,,,,,,,,
COC(=O)/C(=N/O)C(C(=O)C=C(C)C)C(=O)C(=O)Nc1nc2ccc([N+](=O)[O-])cc2s1 (stereo unspecified),> 100,> 100,67.1,78.3,> 100,> 100,72.1,,,,,,,,,,,,,
O=C(O)c1cccc(COc2ccc([N+](=O)[O-])cc2Cl)c1,> 100,> 100,> 100,,> 100,> 100,,,> 100,> 100,40.1,> 100,> 100,> 100,,,> 100,> 100,> 100,
O=C(CC(=O)C1CCOC1=O)C(=O)Nc1cccc(Cl)c1 (stereo unspecified),> 100,> 100,> 100,> 100,> 100,> 100,> 100,,,,,,,,,,,,,
Nc1c(-c2ccccc2-c2c(N)[n+]([O-])c3ccccc3[n+]2[O-])[n+]([O-])c2ccccc2[n+]1[O-],> 100,30.1,> 100,71.7,> 100,31,> 100,,,,,,,,,,,,,
Cc1cc(Nc2nc(-c3cn(-c4ccc(Cl)cc4)nn3)nc3ccccc23)n[nH]1,> 50,> 50,> 50,> 50,> 50,> 50,> 50,> 50,> 50,,20.8,21.9,7.54,3.62,> 50,27.3,10.1,17.7,,> 50
CCCC(=O)C1=C(O)C(Cc2c(O)c(C)c(O)c(C(=O)CCC)c2O)=C(O)C(C)(C)C1=O,> 50,> 50,> 50,,> 50,> 50,,> 50,> 50,> 50,,,,,,,,,,
N#CC(=Nc1ccccc1N(C(=O)c1ccccc1)C(=O)c1ccccc1)c1ccccc1,> 100,> 100,> 100,> 100,> 76.2,> 100,> 100,,,,,,,,,,,,,
COc1ccc(C(=O)c2cc(OC)c(OC)c(OC)c2)cc1OC,> 100,> 100,> 100,5.14,,> 100,,8.83,> 100,> 100,,,,,,,,,,
CCN1c2ccccc2-c2c3c1cc(C)cc3c1ccccc1[n+]2CC,2.46,3.74,8.95,2.51,5.57,1.84,3.69,,,,,,,,,,,,,
CC1=C(C#N)C(=O)CC(c2ccc(Cl)cc2)N(C)N1 (stereo unspecified),> 100,> 100,> 100,,> 100,> 100,> 100,,,,,,,,,,,,,
COc1cccc(/C=N/[N-]C(=O)c2ccncc2)c1[O-].COc1cccc(/C=N/[N-]C(=O)c2ccncc2)c1[O-].[O]=[U](=[O])([OH2+])[OH2+],> 56.7,> 61.4,27.7,> 42.8,> 100,> 100,28,,,,11.6,10,5.47,3.79,,4.27,> 34.2,,,5.01
